Measured values as given in patent US20100298141A1, “SUBSTITUTED PYRIDINE N-OXIDE HERBICIDES” (E. I. DU PONT DE NEMOURS AND COMPANY, priority 2007, published 2010).

Assays:
[1] = test system: corn; experiment: Test A pre-/postemergence greenhouse test; assay type: in vivo, Zea mays; conditions: for Plant response rating, Corn: 0 to 100 scale where 0 is no effect and 100 is complete control; for Corn plant response rating: 0 to 100 scale
Method in brief: (§1)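 Test compounds in non-phytotoxic solvent with surfactant were applied as a preemergence soil spray to seeded loam/sand pots and, concurrently, postemergence to plants at 2–10 cm, one- to two-leaf stage. About ten days in greenhouse, then injury visually rated against untreated controls.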

[2] = test system: umbrella sedge; experiment: Test C flooded paddy test; assay type: in vivo, Cyperus difformis; conditions: Flood
Method in brief: (§2)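 Compound was added to standing water 3 cm above soil, flood maintained, and plants held in a greenhouse before visual scoring against controls at 13 to 15 days.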

[3] = test system: lambsquarters; experiment: Test C pre-/postemergence test; assay type: in vivo, Chenopodium album; conditions: for Plant response rating, Lambsquarters: 31 g ai/ha, scale 0 to 100 (0 no effect, 100 complete control)
Method in brief: (§3)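 Test chemicals were formulated with surfactant in a non-phytotoxic solvent and sprayed both on freshly planted seeds (preemergence) and on 1- to 4-leaf plants of 2–18 cm (postemergence). Flooded-paddy pots received compound directly into 3 cm of standing water, maintained for the test.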

[4] = test system: eastern black nightshade; experiment: Test C pre-/postemergence test; assay type: in vivo, Solanum ptycanthum; conditions: for Plant response rating, Nightshade: 31 g ai/ha, scale 0 to 100 (0 no effect, 100 complete control)
Method in brief: as §3

[5] = test system: crabgrass; experiment: Test C pre-/postemergence test; assay type: in vivo, Digitaria sanguinalis; conditions: for Plant response rating, Crabgrass, Large: 31 g ai/ha, scale 0 to 100 (0 no effect, 100 complete control)
Method in brief: as §3

[6] = test system: rice; experiment: Test C flooded paddy test; assay type: in vivo, Oryza sativa; conditions: Flood
Method in brief: as §2

[7] = test system: redroot pigweed; experiment: Test A pre-/postemergence greenhouse test; assay type: in vivo, Amaranthus retroflexus; conditions: for Plant response rating, Pigweed: 0 to 100 scale where 0 is no effect and 100 is complete control; for Pigweed plant response rating: 0 to 100 scale
Method in brief: as §1

[8] = test system: Surinam grass; experiment: Test C pre-/postemergence test; assay type: in vivo, Brachiaria decumbens; conditions: for Plant response rating, Surinam Grass: 31 g ai/ha, scale 0 to 100 (0 no effect, 100 complete control)
Method in brief: as §3

[9] = test system: wheat; experiment: Test A pre-/postemergence greenhouse test; assay type: in vivo, Triticum aestivum; conditions: for Plant response rating, Wheat: 0 to 100 scale where 0 is no effect and 100 is complete control; for Wheat plant response rating: 0 to 100 scale
Method in brief: as §1

[10] = test system: common (oilseed) sunflower; experiment: Test C pre-/postemergence test; assay type: in vivo, Helianthus annuus; conditions: for Plant response rating, Sunflower: 31 g ai/ha, scale 0 to 100 (0 no effect, 100 complete control)
Method in brief: as §3

[11] = test system: bermudagrass; experiment: Test C pre-/postemergence test; assay type: in vivo, Cynodon dactylon; conditions: for Plant response rating, Bermudagrass: 31 g ai/ha
Method in brief: as §3

[12] = test system: morningglory; experiment: Test A pre-/postemergence greenhouse test; assay type: in vivo, Ipomoea spp.; conditions: for Plant response rating, Morningglory: 0 to 100 scale where 0 is no effect and 100 is complete control; for Morningglory plant response rating: 0 to 100 scale
Method in brief: as §1

[13] = test system: giant foxtail; experiment: Test A pre-/postemergence greenhouse test; assay type: in vivo, Setaria faberi; conditions: for Plant response rating, Foxtail, Giant: 0 to 100 scale where 0 is no effect and 100 is complete control; for Foxtail, Giant plant response rating: 0 to 100 scale
Method in brief: as §1

[14] = test system: Goosegrass; experiment: Test C pre-/postemergence test; assay type: in vivo, Eleusin indica; conditions: for Plant response rating, Goosegrass: 31 g ai/ha, scale 0 to 100 (0 no effect, 100 complete control)
Method in brief: as §3

[15] = test system: barnyardgrass; experiment: Test A pre-/postemergence greenhouse test; assay type: in vivo, Echinochloa crus-galli; conditions: for Plant response rating, Barnyardgrass: 0 to 100 scale where 0 is no effect and 100 is complete control; for Barnyardgrass plant response rating: 0 to 100 scale
Method in brief: as §1

[16] = test system: wheat; experiment: Test C pre-/postemergence test; assay type: in vivo, Triticum aestivum; conditions: for Plant response rating, Wheat: 31 g ai/ha, scale 0 to 100 (0 no effect, 100 complete control)
Method in brief: as §3

[17] = test system: pigweed; experiment: Test C pre-/postemergence test; assay type: in vivo, Amaranthus retroflexus; conditions: for Plant response rating, Pigweed: 31 g ai/ha, scale 0 to 100 (0 no effect, 100 complete control)
Method in brief: as §3

[18] = Postemergence, 500 g ai/ha, 0 is no effect, 100 is complete control
[19] = Preemergence, 125 g ai/ha, 0 no effect, 100 complete control
[20] = 62 g ai/ha, scale 0 to 100 (0 no effect, 100 complete control)
[21] = 250 g ai/ha, scale 0 to 100, 0 no effect, 100 complete control, 13 to 15 days
[22] = 62 g ai/ha, Preemergence, scale 0 to 100
[23] = 125 g ai/ha, preemergence, scale 0 (no effect) to 100 (complete control)
[24] = preemergence, 250 g ai/ha, scale 0 (no effect) to 100 (complete control)
[25] = 62 g ai/ha, Preemergence, scale 0 to 100 (0 no effect, 100 complete control)
[26] = Preemergence, scale 0 to 100 (0 no effect, 100 complete control)

## Cn1nc(C(F)(F)C(F)(F)F)c(C[S+]([O-])c2ccc(Cl)c[n+]2[O-])c1OCC(F)(F)F (centres unmarked) [Compound 92]
[1]; Postemergence, 125 g ai/ha
  Plant response rating, Corn: 70
[1]; [18]
  Corn plant response rating: 80
[1]; [19]
  Corn plant response rating: 60
[1]; Preemergence, 500 g ai/ha
  Plant response rating, Corn: 90
[2]; [20]
  Plant response rating, Sedge, Umbrella: 20
[2]; [21]
  Plant response rating, Sedge, Umbrella: 100
[3]; [22]
  Lambsquarters plant response rating: 100
[3]; [23]
  Lambsquarters plant response rating: 100
[3]; Preemergence
  Plant response rating, Lambsquarters: 100
[3]; [24]
  Lambsquarters plant response rating: 100
[4]; [22]
  Nightshade plant response rating: 80
[4]; [23]
  Nightshade plant response rating: 100
[4]; Preemergence
  Plant response rating, Nightshade: 60
[4]; [24]
  Nightshade plant response rating: 100
[5]; [22]
  Crabgrass, Large plant response rating: 98
[5]; [23]
  Crabgrass, Large plant response rating: 100
[5]; Preemergence
  Plant response rating, Crabgrass, Large: 95
[5]; [24]
  Crabgrass, Large plant response rating: 100
[6]; [20]
  Plant response rating, Rice: 30
[6]; [21]
  Plant response rating, Rice: 50
[7]; Postemergence, 125 g ai/ha
  Plant response rating, Pigweed: 50
[7]; [18]
  Pigweed plant response rating: 100
[7]; [19]
  Pigweed plant response rating: 100
[7]; Preemergence, 500 g ai/ha
  Plant response rating, Pigweed: 100
[8]; [22]
  Surinam Grass plant response rating: 98
[8]; [23]
  Surinam Grass plant response rating: 100
[8]; Preemergence
  Plant response rating, Surinam Grass: 70
[8]; [24]
  Surinam Grass plant response rating: 100
[9]; Postemergence, 125 g ai/ha
  Plant response rating, Wheat: 70
[9]; [18]
  Wheat plant response rating: 70
[9]; [19]
  Wheat plant response rating: 70
[9]; Preemergence, 500 g ai/ha, 0 no effect, 100 complete control
  Wheat plant response rating: 90
[10]; [22]
  Sunflower plant response rating: 35
[10]; [23]
  Sunflower plant response rating: 70
[10]; Preemergence
  Plant response rating, Sunflower: 0
[10]; [24]
  Sunflower plant response rating: 85
[11]; [25]
  Bermudagrass plant response rating: 100
[11]; [23]
  Bermudagrass plant response rating: 100
[11]; [26]
  Plant response rating, Bermudagrass: 100
[11]; [24]
  Bermudagrass plant response rating: 100
[12]; Postemergence, 125 g ai/ha
  Plant response rating, Morningglory: 70
[12]; [18]
  Morningglory plant response rating: 100
[12]; [19]
  Morningglory plant response rating: 100
[12]; Preemergence, 500 g ai/ha
  Plant response rating, Morningglory: 100
[13]; Postemergence, 125 g ai/ha
  Plant response rating, Foxtail, Giant: 80
[13]; [18]
  Foxtail, Giant plant response rating: 90
[13]; [19]
  Foxtail, Giant plant response rating: 90
[13]; Preemergence, 500 g ai/ha
  Plant response rating, Foxtail, Giant: 100
[14]; [22]
  Goosegrass plant response rating: 90
[14]; [23]
  Goosegrass plant response rating: 90
[14]; Preemergence
  Plant response rating, Goosegrass: 90
[14]; [24]
  Goosegrass plant response rating: 100
[15]; Postemergence, 125 g ai/ha
  Plant response rating, Barnyardgrass: 70
[15]; [18]
  Barnyardgrass plant response rating: 90
[15]; [19]
  Barnyardgrass plant response rating: 60
[15]; Preemergence, 500 g ai/ha
  Plant response rating, Barnyardgrass: 90
[16]; [22]
  Wheat plant response rating: 65
[16]; [23]
  Wheat plant response rating: 90
[16]; Preemergence
  Plant response rating, Wheat: 35
[16]; [24]
  Wheat plant response rating: 95
[17]; [22]
  Pigweed plant response rating: 100
[17]; [23]
  Pigweed plant response rating: 100
[17]; Preemergence
  Plant response rating, Pigweed: 80
[17]; [24]
  Pigweed plant response rating: 100

## C#CCOc1c(C[S+]([O-])c2cccc[n+]2[O-])c(C(F)(F)F)nn1C (centres unmarked) [Compound 76]
[1]; Postemergence, 125 g ai/ha
  Plant response rating, Corn: 40
[1]; [18]
  Corn plant response rating: 60
[1]; [19]
  Corn plant response rating: 0
[1]; Preemergence, 500 g ai/ha
  Plant response rating, Corn: 80
[2]; [20]
  Plant response rating, Sedge, Umbrella: 0
[2]; [21]
  Plant response rating, Sedge, Umbrella: 100
[3]; [22]
  Lambsquarters plant response rating: 100
[3]; [23]
  Lambsquarters plant response rating: 100
[3]; Preemergence
  Plant response rating, Lambsquarters: 85
[3]; [24]
  Lambsquarters plant response rating: 100
[4]; [22]
  Nightshade plant response rating: 85
[4]; [23]
  Nightshade plant response rating: 90
[4]; Preemergence
  Plant response rating, Nightshade: 85
[4]; [24]
  Nightshade plant response rating: 100
[5]; [22]
  Crabgrass, Large plant response rating: 85
[5]; [23]
  Crabgrass, Large plant response rating: 98
[5]; Preemergence
  Plant response rating, Crabgrass, Large: 85
[5]; [24]
  Crabgrass, Large plant response rating: 100
[6]; [20]
  Plant response rating, Rice: 0
[6]; [21]
  Plant response rating, Rice: 30
[7]; Postemergence, 125 g ai/ha
  Plant response rating, Pigweed: 50
[7]; [18]
  Pigweed plant response rating: 80
[7]; [19]
  Pigweed plant response rating: 70
[7]; Preemergence, 500 g ai/ha
  Plant response rating, Pigweed: 100
[8]; [22]
  Surinam Grass plant response rating: 85
[8]; [23]
  Surinam Grass plant response rating: 85
[8]; Preemergence
  Plant response rating, Surinam Grass: 0
[8]; [24]
  Surinam Grass plant response rating: 100
[9]; Postemergence, 125 g ai/ha
  Plant response rating, Wheat: 20
[9]; [18]
  Wheat plant response rating: 60
[9]; [19]
  Wheat plant response rating: 20
[9]; Preemergence, 500 g ai/ha
  Plant response rating, Wheat: 100
[10]; [22]
  Sunflower plant response rating: 35
[10]; [23]
  Sunflower plant response rating: 50
[10]; Preemergence
  Plant response rating, Sunflower: 0
[10]; [24]
  Sunflower plant response rating: 70
[11]; [25]
  Bermudagrass plant response rating: 100
[11]; [23]
  Bermudagrass plant response rating: 100
[11]; [26]
  Plant response rating, Bermudagrass: 80
[11]; [24]
  Bermudagrass plant response rating: 100
[12]; Postemergence, 125 g ai/ha
  Plant response rating, Morningglory: 70
[12]; [18]
  Morningglory plant response rating: 90
[12]; [19]
  Morningglory plant response rating: 50
[12]; Preemergence, 500 g ai/ha
  Plant response rating, Morningglory: 90
[13]; Postemergence, 125 g ai/ha
  Plant response rating, Foxtail, Giant: 80
[13]; [18]
  Foxtail, Giant plant response rating: 90
[13]; [19]
  Foxtail, Giant plant response rating: 90
[13]; Preemergence, 500 g ai/ha
  Plant response rating, Foxtail, Giant: 100
[14]; [22]
  Goosegrass plant response rating: 95
[14]; [23]
  Goosegrass plant response rating: 98
[14]; Preemergence
  Plant response rating, Goosegrass: 80
[14]; [24]
  Goosegrass plant response rating: 100
[15]; Postemergence, 125 g ai/ha
  Plant response rating, Barnyardgrass: 70
[15]; [18]
  Barnyardgrass plant response rating: 80
[15]; [19]
  Barnyardgrass plant response rating: 80
[15]; Preemergence, 500 g ai/ha
  Plant response rating, Barnyardgrass: 100
[16]; [22]
  Wheat plant response rating: 60
[16]; [23]
  Wheat plant response rating: 98
[16]; Preemergence
  Plant response rating, Wheat: 0
[16]; [24]
  Wheat plant response rating: 100
[17]; [22]
  Pigweed plant response rating: 80
[17]; [23]
  Pigweed plant response rating: 80
[17]; Preemergence
  Plant response rating, Pigweed: 50
[17]; [24]
  Pigweed plant response rating: 100
